{
  "source": "ChEMBL document CHEMBL1135266",
  "about": "“Covalent analogues of DNA base-pairs and triplets. Part 2: synthesis and cytostatic activity of bis(purin-6-yl)acetylenes,-diacetylenes and related compounds” (Bioorg Med Chem Lett, 2002)",
  "key": {"L929 [1]": {"system": "L929", "assay": "Tested in vitro for the inhibition of cell growth of murine L929 cells (ATCC CCL 1); na = not active (inhibition of cell growth at 10 uM was lower than 20%)", "type": "functional, cell-based, Mus musculus"}, "CCRF-CEM [2]": {"system": "CCRF-CEM", "assay": "Tested in vitro for the inhibition of cell growth of human T lymphoblastoid CCRF-CEM cell line (ATCC CCL 119); na = not active (inhibition of cell growth at 10 uM was lower than 20%)", "type": "functional, cell-based"}, "HeLa [3]": {"system": "HeLa", "assay": "Tested in vitro for the inhibition of cell growth of human cervix carcinoma HeLa S3 cell (ATCC CCL 2.2); na = not active (inhibition of cell growth at 10 uM was lower than 20%)", "type": "functional, cell-based"}, "L1210 [4]": {"system": "L1210", "assay": "Tested in vitro for the inhibition of cell growth of mouse leukemia L1210 cell (ATCC CCL 219); na = not active (inhibition of cell growth at 10 uM was lower than 20%)", "type": "functional, cell-based"}, "L929 [5]": {"system": "L929", "assay": "Tested in vitro for the inhibition of cell growth of murine L929 cells (ATCC CCL 1)", "type": "functional, cell-based", "conditions": "Mus musculus; call rule not given here"}, "L1210 [6]": {"system": "L1210", "assay": "Tested in vitro for the inhibition of cell growth of mouse leukemia L1210 cell (ATCC CCL 219)", "type": "functional, cell-based"}, "CCRF-CEM [7]": {"system": "CCRF-CEM", "assay": "Tested in vitro for the inhibition of cell growth of human T lymphoblastoid CCRF-CEM cell line (ATCC CCL 119)", "type": "functional, cell-based"}, "HeLa [8]": {"system": "HeLa", "assay": "Tested in vitro for the inhibition of cell growth of human cervix carcinoma HeLa S3 cell (ATCC CCL 2.2)", "type": "functional, cell-based"}},
  "data": [
    {"smiles": "c1ccc(Cn2cnc3c(CCc4ncnc5c4ncn5Cc4ccccc4)ncnc32)cc1", "values": [
      {"measurement": "IC50", "setting": "L929 [1]", "result": "Not Active"},
      {"measurement": "IC50", "setting": "CCRF-CEM [2]", "result": "Not Active"},
      {"measurement": "IC50", "setting": "HeLa [3]", "result": "Not Active"},
      {"measurement": "IC50", "setting": "L1210 [4]", "result": "Not Active"}
    ]},
    {"smiles": "C(#Cc1ncnc2c1ncn2Cc1ccccc1)c1ncnc2c1ncn2Cc1ccccc1", "values": [
      {"measurement": "IC50", "setting": "L929 [5]", "result": 5300, "unit": "nM"},
      {"measurement": "IC50", "setting": "L1210 [6]", "result": 1800, "unit": "nM"},
      {"measurement": "IC50", "setting": "HeLa [3]", "result": "Not Active"},
      {"measurement": "IC50", "setting": "CCRF-CEM [7]", "result": 900, "unit": "nM"}
    ]},
    {"smiles": "O=c1[nH]c(=O)n([C@H]2C[C@H](O)[C@@H](CO)O2)cc1F", "note": "[FLOXURIDINE]", "values": [
      {"measurement": "IC50", "setting": "L929 [5]", "result": "> 25000", "unit": "nM"},
      {"measurement": "IC50", "setting": "L1210 [6]", "result": "< 20", "unit": "nM"},
      {"measurement": "IC50", "setting": "CCRF-CEM [7]", "result": 500, "unit": "nM"},
      {"measurement": "IC50", "setting": "HeLa [8]", "result": "> 25", "unit": "µM"}
    ]},
    {"smiles": "CCCCCn1cnc2c(C#Cc3ncnc4c3ncn4CCCCC)ncnc21", "values": [
      {"measurement": "IC50", "setting": "L929 [5]", "result": 3000, "unit": "nM"},
      {"measurement": "IC50", "setting": "L1210 [6]", "result": 1500, "unit": "nM"},
      {"measurement": "IC50", "setting": "CCRF-CEM [7]", "result": 360, "unit": "nM"},
      {"measurement": "IC50", "setting": "HeLa [8]", "result": 15, "unit": "µM"}
    ]},
    {"smiles": "C(=Cc1ncnc2c1ncn2Cc1ccccc1)c1ncnc2c1ncn2Cc1ccccc1", "values": [
      {"measurement": "IC50", "setting": "L929 [1]", "result": "Not Active"},
      {"measurement": "IC50", "setting": "CCRF-CEM [2]", "result": "Not Active"},
      {"measurement": "IC50", "setting": "HeLa [3]", "result": "Not Active"},
      {"measurement": "IC50", "setting": "L1210 [4]", "result": "Not Active"}
    ]},
    {"smiles": "C(=C\\c1ncnc2c1ncn2Cc1ccccc1)/c1ncnc2c1ncn2Cc1ccccc1", "values": [
      {"measurement": "IC50", "setting": "L929 [1]", "result": "Not Active"},
      {"measurement": "IC50", "setting": "CCRF-CEM [2]", "result": "Not Active"},
      {"measurement": "IC50", "setting": "HeLa [3]", "result": "Not Active"},
      {"measurement": "IC50", "setting": "L1210 [4]", "result": "Not Active"}
    ]},
    {"smiles": "C(#Cc1ncnc2c1ncn2C1CCCCO1)c1ncnc2c1ncn2Cc1ccccc1", "note": "(stereo not given)", "values": [
      {"measurement": "IC50", "setting": "L929 [5]", "result": 1900, "unit": "nM"},
      {"measurement": "IC50", "setting": "L1210 [6]", "result": 900, "unit": "nM"},
      {"measurement": "IC50", "setting": "CCRF-CEM [7]", "result": 320, "unit": "nM"},
      {"measurement": "IC50", "setting": "HeLa [8]", "result": 6, "unit": "µM"}
    ]},
    {"smiles": "C(C#Cc1ncnc2c1ncn2C1CCCCO1)#Cc1ncnc2c1ncn2C1CCCCO1", "note": "(stereo not given)", "values": [
      {"measurement": "IC50", "setting": "L929 [5]", "result": 1000, "unit": "nM"},
      {"measurement": "IC50", "setting": "L1210 [6]", "result": 700, "unit": "nM"},
      {"measurement": "IC50", "setting": "CCRF-CEM [7]", "result": 580, "unit": "nM"},
      {"measurement": "IC50", "setting": "HeLa [8]", "result": 13.3, "unit": "µM"}
    ]},
    {"smiles": "C(C#Cc1ncnc2c1ncn2Cc1ccccc1)#Cc1ncnc2c1ncn2Cc1ccccc1", "values": [
      {"measurement": "IC50", "setting": "L929 [5]", "result": 6300, "unit": "nM"},
      {"measurement": "IC50", "setting": "L1210 [6]", "result": 370, "unit": "nM"},
      {"measurement": "IC50", "setting": "HeLa [3]", "result": "Not Active"},
      {"measurement": "IC50", "setting": "CCRF-CEM [7]", "result": 430, "unit": "nM"}
    ]},
    {"smiles": "CCCCCn1cnc2c(C#CC#Cc3ncnc4c3ncn4CCCCC)ncnc21", "values": [
      {"measurement": "IC50", "setting": "L929 [5]", "result": 1300, "unit": "nM"},
      {"measurement": "IC50", "setting": "L1210 [6]", "result": 500, "unit": "nM"},
      {"measurement": "IC50", "setting": "CCRF-CEM [7]", "result": 370, "unit": "nM"},
      {"measurement": "IC50", "setting": "HeLa [8]", "result": 15, "unit": "µM"}
    ]}
  ]
}
